Assay results: US7026354B2 (priority 2001, dated 2006)
Several values for one entry are separate records, joined by “and”; a condition that tells them apart may be missing. Equal values may be shown once. Read-outs that look alike come from different tables or passages of the source.

Tests used:
Type in all cases: cell-based
S. aureus (MN8) [1] = test system: S. aureus (MN8)
S. aureus (MN8) [2] = test system: S. aureus (MN8); remark: listed apart in the source
S. aureus FRI-1169 [3] = test system: S. aureus FRI-1169
S. aureus FRI-1169 [4] = test system: S. aureus FRI-1169; remark: listed apart in the source
S. aureus FRI-1187 [5] = settings: for ELISA: TSST-1 ng/OD unit / Reduction of Toxin %: Table 5, FRI-1187
S. aureus FRI-1187 [6] = test system: S. aureus FRI-1187
S. aureus strain RN 6390 = test system: S. aureus strain RN 6390
[7] = Table 1, 0.5% test compound, 24 h
[8] = Table 1, 0.5% test compound, vs control
[9] = Table 6, Cetiol 1414E 0, PEA 0.05%
[10] = Table 6, Cetiol 1414E 0, PEA 0.15%
[11] = Table 6, Cetiol 1414E 0, PEA 0.3%
[12] = Table 6, Cetiol 1414E 0, PEA 0.5%
[13] = Table 10, Cetiol 2.5 mM, PABA 0%
[14] = Table 10, Cetiol 10 mM, PABA 0%

NC(=O)c1ccccc1O [2-hydroxybenzamide]
ELISA: TSST-1 ng/OD unit (S. aureus (MN8) [1]; Table 1, 1.0% test compound, 24 h): 65 ng/OD unit
Reduction of Toxin % (S. aureus (MN8) [1]; Table 1, 1.0% test compound, vs control): 95%
CFU/mL (S. aureus (MN8) [2]; 24 h): 9.0E+07 CFU/mL
Optical Density (S. aureus (MN8) [2]; 24 h, 600 nm): 0.549

O=C(O)c1ccccc1O [2-hydroxybenzoic acid]
ELISA: TSST-1 ng/OD unit (S. aureus (MN8) [1]; Table 2, 0.2% test compound): 193 ng/OD unit
CFU/mL (S. aureus (MN8) [2]): 1.48E+09 CFU/mL
Optical Density (S. aureus (MN8) [2]): 0.682

CC(=O)Nc1ccc(O)cc1 [4-Acetamidophenol]
ELISA: TSST-1 ng/OD unit (S. aureus (MN8) [1]; Table 4, 0.5% test compound): 230 ng/OD unit
CFU/mL (S. aureus (MN8) [2]): 2.4E+09 CFU/mL
Optical Density (S. aureus (MN8) [2]): 0.629

CC(=O)N[C@@H](Cc1ccc(O)cc1)C(=O)O [Acetyl tyrosine]
ELISA: TSST-1 ng/OD unit (S. aureus (MN8) [1]; Table 3, 0.5% test compound): 436 ng/OD unit
CFU/mL (S. aureus (MN8) [2]): 1.7E+09 CFU/mL
Optical Density (S. aureus (MN8) [2]): 0.549

OCc1ccccc1 [Benzyl alcohol]
ELISA: TSST-1 ng/OD unit (S. aureus (MN8) [1]; [7]): 131 ng/OD unit
Reduction of Toxin % (S. aureus (MN8) [1]; [8]): 91%
CFU/mL (S. aureus (MN8) [2]; 24 h): 1.8E+08 CFU/mL
Optical Density (S. aureus (MN8) [2]; 24 h, 600 nm): 0.792

O=C(O)c1cc(O)c(O)c(O)c1 [Gallic acid]
ELISA: TSST-1 ng/OD unit (S. aureus (MN8) [1]; Table 3, 0.5% test compound): 63 ng/OD unit
CFU/mL (S. aureus (MN8) [2]): 1.2E+09 CFU/mL
Optical Density (S. aureus (MN8) [2]): 0.492

OCCc1ccccc1 [Phenylethyl alcohol]
% Reduction (S. aureus (MN8) [1]): 57% and 80% and 93% and 98%
ELISA: TSST-1 ng/OD unit (S. aureus (MN8) [1]; [7]): 60 ng/OD unit
Reduction of Toxin % (S. aureus (MN8) [1]; [8]): 96%
ELISA: TSST-1 ng/OD unit (S. aureus (MN8) [1]; Table 2, 0.5% test compound): 68 ng/OD unit
ELISA: TSST-1 ng/OD unit (S. aureus (MN8) [1]; Table 3, 0.5% test compound): 46 ng/OD unit
ELISA: TSST-1 ng/OD unit (S. aureus (MN8) [1]; Table 4, 0.5% test compound): 25 ng/OD unit
Reduction of Toxin % (S. aureus (MN8) [1]; [9]): 32%
ng TSST-1 per CFU (S. aureus (MN8) [1]; [9]): 266 ng per CFU
ng TSST-1 per mL (S. aureus (MN8) [1]; [9]): 826 ng per mL
Reduction of Toxin % (S. aureus (MN8) [1]; [10]): 67%
ng TSST-1 per CFU (S. aureus (MN8) [1]; [10]): 129 ng per CFU
ng TSST-1 per mL (S. aureus (MN8) [1]; [10]): 561 ng per mL
Reduction of Toxin % (S. aureus (MN8) [1]; [11]): 90%
ng TSST-1 per CFU (S. aureus (MN8) [1]; [11]): 39 ng per CFU
ng TSST-1 per mL (S. aureus (MN8) [1]; [11]): 201 ng per mL
Reduction of Toxin % (S. aureus (MN8) [1]; [12]): 93%
ng TSST-1 per CFU (S. aureus (MN8) [1]; [12]): 27 ng per CFU
ng TSST-1 per mL (S. aureus (MN8) [1]; [12]): 106 ng per mL
ng TSST-1/OD (S. aureus (MN8) [1]; Table 9, Glucopon 0 mM, PEA 0.05%): 323 ng/OD
ng TSST-1/OD (S. aureus (MN8) [1]; Table 9, Glucopon 0 mM, PEA 0.15%): 152 ng/OD
ng TSST-1/OD (S. aureus (MN8) [1]; Table 9, Glucopon 0 mM, PEA 0.3%): 54 ng/OD
ng TSST-1/OD (S. aureus (MN8) [1]; Table 9, Glucopon 0 mM, PEA 0.50%): 13 ng/OD
Log CFU/mL (S. aureus (MN8) [2]): 8.6 Log CFU/mL and 8.7 Log CFU/mL and 8.5 Log CFU/mL
OD (S. aureus (MN8) [2]): 0.712 and 0.730 and 0.758 and 0.721
Optical Density (S. aureus (MN8) [2]): 0.542 and 0.551 and 0.476 and 0.554
Reduction of Toxin % (S. aureus FRI-1169 [3]): 99% and 95%
Optical Density (S. aureus FRI-1169 [4]): 1.263 and 1.208
effect on the growth of S. aureus cells (S. aureus FRI-1169 [4]): minimal, if any, effect on the growth
reduction of the amount of exotoxin production (S. aureus FRI-1187 [5]): significantly reduced
ELISA: TSST-1 ng/OD unit (S. aureus FRI-1187 [5]; 0.25% test compound): 1 ng/OD unit
Reduction of Toxin % (S. aureus FRI-1187 [5]; 0.25% test compound): 98%
ELISA: TSST-1 ng/OD unit (S. aureus FRI-1187 [5]; 0.5% test compound): none detected
Reduction of Toxin % (S. aureus FRI-1187 [5]; 0.5% test compound): 100%
Optical Density (S. aureus FRI-1187 [6]): 1.296 and 1.244
effect on the growth of S. aureus cells (S. aureus FRI-1187 [6]): minimal, if any, effect on the growth
Hemolytic Endpoint 50% lysis (S. aureus strain RN 6390): None Detected
production of alpha toxin (S. aureus strain RN 6390): significantly reduced
% Toxin Inhibition (S. aureus strain RN 6390; Table 7, 0.3% test compound): 97%
Hemolytic Endpoint 50% lysis (S. aureus strain RN 6390; Table 7, 0.3% test compound, reciprocal of the dilution giving 50% lysis): 3
% Toxin Inhibition (S. aureus strain RN 6390; Table 7, 0.4% test compound): 100%

O=C(O)/C=C/c1ccccc1 [Trans-cinnamic acid]
ELISA: TSST-1 ng/OD unit (S. aureus (MN8) [1]; Table 3, 0.5% test compound): 436 ng/OD unit
CFU/mL (S. aureus (MN8) [2]): 1.7E+09 CFU/mL
Optical Density (S. aureus (MN8) [2]): 0.549

Nc1ccc(C(=O)O)cc1 [p-aminobenzoic acid]
ELISA: TSST-1 ng/OD unit (S. aureus (MN8) [1]; Table 2, 0.2% test compound): 317 ng/OD unit
ng TSST-1/OD (S. aureus (MN8) [1]; Table 10, Cetiol 0 mM, PABA 0.05%): 5670 ng/OD
ng TSST-1/OD (S. aureus (MN8) [1]; Table 10, Cetiol 0 mM, PABA 0.09%): 3389 ng/OD
ng TSST-1/OD (S. aureus (MN8) [1]; Table 10, Cetiol 0 mM, PABA 0.19%): 1975 ng/OD
ng TSST-1/OD (S. aureus (MN8) [1]; Table 10, Cetiol 0 mM, PABA 0.38%): 1039 ng/OD
CFU/mL (S. aureus (MN8) [2]): 1.1E+09 CFU/mL and 1.53E+09 CFU/mL and 1.85E+09 CFU/mL and 1.79E+09 CFU/mL and 1.15E+09 CFU/mL
OD (S. aureus (MN8) [2]): 0.546 and 0.558 and 0.599 and 0.589
Optical Density (S. aureus (MN8) [2]): 0.618

COC(=O)c1ccc(O)cc1 [p-hydroxybenzoic acid, methyl ester]
ELISA: TSST-1 ng/OD unit (S. aureus (MN8) [1]; Table 2, 0.2% test compound): 506 ng/OD unit
CFU/mL (S. aureus (MN8) [2]): >1.5E+08 CFU/mL
Optical Density (S. aureus (MN8) [2]): 0.356
production of alpha toxin (S. aureus strain RN 6390): significantly reduced
% Toxin Inhibition (S. aureus strain RN 6390; Table 8, 0.1% test compound): 70%
Hemolytic Endpoint 50% lysis (S. aureus strain RN 6390; Table 8, 0.1% test compound, reciprocal of the dilution giving 50% lysis): 79
% Toxin Inhibition (S. aureus strain RN 6390; Table 8, 0.2% test compound): 94%
Hemolytic Endpoint 50% lysis (S. aureus strain RN 6390; Table 8, 0.2% test compound, reciprocal of the dilution giving 50% lysis): 16

myreth-3 myristate [Cetiol 1414E]
ng TSST-1 per CFU (S. aureus (MN8) [1]; Table 6, Cetiol 1414E 2.5 mM, PEA 0): 239 ng per CFU
ng TSST-1 per CFU (S. aureus (MN8) [1]; Table 6, Cetiol 1414E 5 mM, PEA 0): 172 ng per CFU
ng TSST-1 per CFU (S. aureus (MN8) [1]; Table 6, Cetiol 1414E 10 mM, PEA 0): 61 ng per CFU
% Reduction (S. aureus (MN8) [1]; [13]): 31%
ng TSST-1/OD (S. aureus (MN8) [1]; [13]): 3367 ng/OD
% Reduction (S. aureus (MN8) [1]; Table 10, Cetiol 5 mM, PABA 0%): 51%
ng TSST-1/OD (S. aureus (MN8) [1]; Table 10, Cetiol 5 mM, PABA 0%): 2419 ng/OD
% Reduction (S. aureus (MN8) [1]; [14]): 53%
ng TSST-1/OD (S. aureus (MN8) [1]; [14]): 2286 ng/OD
Log CFU/mL (S. aureus (MN8) [2]): 8.6 Log CFU/mL and 8.5 Log CFU/mL
OD (S. aureus (MN8) [2]): 0.881 and 0.976 and 0.637
